{"source": "patent US9468651B1", "about": "“Method of removing moles” (priority 2009, dated 2016)", "origin": "cited, not measured here", "conditions": "property of the ingredient stated with a literature reference (Merck Index; Concise Encyclopedia of Chemical Technology)", "data": [{"smiles": "[K+].[OH-]", "note": "[Potassium hydroxide]", "values": [{"measurement": "PH value", "result": 13.5}]}]}
